Reference: PMC8000724, “Trans-Epithelial Transport, Metabolism, and Biological Activity Assessment of the Multi-Target Lupin Peptide [sequence] (P5) and Its Metabolite [sequence] (P5-Met)” (Nutrients, 2021)
No end group written: not given here.

Key:
[1] = target: T1, HMGCoAR (catalytic domain) (Homo sapiens, UniProt P04035); test: HMGCoAR activity assay; type: biochemical
T1 construct: finally the HMGCoAR (catalytic domain) (2 µL); purchased Sigma-Aldrich
T1 sequence (P04035 340-888 limits assumed): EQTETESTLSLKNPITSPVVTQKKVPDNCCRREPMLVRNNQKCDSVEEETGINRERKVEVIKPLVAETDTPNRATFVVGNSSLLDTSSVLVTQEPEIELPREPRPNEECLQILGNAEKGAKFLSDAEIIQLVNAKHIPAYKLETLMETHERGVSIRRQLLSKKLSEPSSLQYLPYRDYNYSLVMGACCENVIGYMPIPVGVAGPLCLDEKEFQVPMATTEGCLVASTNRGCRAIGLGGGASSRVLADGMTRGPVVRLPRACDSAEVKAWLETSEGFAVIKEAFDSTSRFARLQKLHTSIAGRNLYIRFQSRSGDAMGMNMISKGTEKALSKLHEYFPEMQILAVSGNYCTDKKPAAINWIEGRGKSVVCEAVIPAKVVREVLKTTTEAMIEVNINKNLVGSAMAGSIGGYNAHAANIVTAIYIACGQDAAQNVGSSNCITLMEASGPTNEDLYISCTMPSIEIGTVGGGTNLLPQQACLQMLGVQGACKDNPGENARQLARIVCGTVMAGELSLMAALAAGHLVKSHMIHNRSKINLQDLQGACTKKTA
Protocol: The experiments were carried out following the manufacturer instructions and optimized protocol. The assay buffer, NADPH, substrate solution, and HMGCoAR were provided in the HMGCoAR Assay Kit (Sigma Aldrich SRL, Milan, Italy). The experiments were carried out following the manufacturer instructions at 37 °C. In particular, each reaction (200 µL) was prepared adding the reagents in the following order: 1× assay buffer, a 10–500 µM doses of P5 and P5-met or vehicle (C), the NADPH (4 µL), the substrate solution (12 µL), and finally the HMGCoAR (catalytic domain) (2 µL). Subsequently, the samples were mixed and the absorbance at 340 nm read by the microplate reader Synergy H1 (Winooski, VT, USA) at time 0 and 10 min. The HMGCoAR-dependent oxidation of NADPH and the inhibition properties of peptides were measured by absorbance reduction, which is directly proportional to enzyme activity.

[2] = tested on: differentiated Caco-2 cells (AP membrane peptidases); test: Metabolites of P5 produced by Caco-2 cell peptidases, MS analysis of AP solutions; type: in vitro ADME, human; design: key to Metabolite of P5 identified in the AP compartment: Mixture / Metabolite of P5 identified in the AP compartment: Alone: x, detected; n.d., not detected; settings: P5 incubated in mixture with P3 and P7 (500 μM each), Caco-2, end of incubation 120 min
Protocol: (§1) Prior to experiments, the cell monolayer integrity and differentiation were checked by TEER measurement as described in detail above. Peptide trans-epithelial passage was assayed in differentiated Caco-2 cells in transport buffer solution (137 mM NaCl, 5.36 mM KCl, 1.26 mM CaCl2, and 1.1 mM MgCl2, 5.5 mM glucose) according to previously described conditions. In order to reproduce the pH conditions existing in vivo in the small intestinal mucosa, the apical (AP) solutions were maintained at pH 6.0 (buffered with 10 mM morpholinoethane sulfonic acid), and the basolateral (BL)solutions were maintained at pH 7.4 (buffered with 10 mM […]). Prior to transport experiments, cells were washed twice with 500 µL PBS containing Ca^++ and Mg^++. Peptide transportation by mature Caco-2 cells was assayed by loading the AP compartment with P5 alone, in mixture with […] (P3) and […] (P7), and/or P5-met (500 μM) in the AP transport solution (500 µL) and the BL compartment with the BL transport solution (700 µL). The plates were incubated at 37 °C and the BL solutions were collected at different time points (i.e., 15, 30, 60, 90, and 120 min) and replaced with fresh solutions pre-warmed at 37 °C. All BL and AP solutions collected at the end of the transport experiment were stored at −80 °C prior to analysis. Three independent transport experiments were performed, each in duplicate. In order to assess the involvement of transcytotic process in peptides passage, parallel transport experiments were performed in the presence of 500 nM wortmannin in both the AP and BL compartment, over 60 min incubation time.
The medium collected at the end of transport experiments from AP and BL chambers (500 µL and 700 µL, respectively) were freeze-dried and residues were solubilized in HPLC water (100 µL). Samples were desalted with C18 resin ZipTip by using 80% ACN, 0.1% FA as eluent (Millipore Corporation, Bedford, MA, USA). Each sample was lyophilized under speed-vacuum for 5 h at 30°C and re-dissolved in 50 μL (0.1% formic acid), before MS analysis. Purified BL samples were analyzed on a SL IT mass spectrometer interfaced with a HPLC- Chip Cube source (Agilent Technologies, Palo Alto, CA, USA). Data were processed with MSD Trap control 4.2, and Data analysis 4.2 version (Agilent Technologies, Palo Alto, CA, USA). The chromatographic separation was performed using a 1200 HPLC system equipped with a binary pump. […] Specifically, The monitored MRM transitions of P5-met were from the mono-charged precursor ion [M^+H]^+ (m/z 882.43) to product-ions m/z 678.3 and 407.1, respectively. […]

[3] = tested on: differentiated Caco-2 cells; test: Trans-epithelial transport across differentiated Caco-2 cell monolayer; type: in vitro ADME, human
Protocol: Human intestinal Caco-2 cells, obtained from INSERM (Paris, France), where cultured according to a published protocol. For differentiation, they were seeded on polycarbonate filters, 12 mm diameter, 0.4 µm pore diameter (Transwell, Corning Inc., Lowell, MA, US) at a 3.5 × 10^5 cells/cm^2 density in complete medium supplemented with 10% FBS in both AP and BL compartments for 2 d to allow the formation of a confluent cell monolayer. Starting from day three after seeding, cells were transferred to FBS-free medium in both compartments, supplemented with ITS (final concentration 10 mg/L insulin (I), 5.5 mg/L transferrin (T), 6.7 μg/L sodium selenite (S); GIBCO-Invitrogen, San Giuliano Milanese, Italy) only in the basolateral (BL) compartment, and allowed to differentiate for 18–21 days with regular medium changes three times weekly.
The transepithelial electrical resistance (TEER) of differentiated Caco-2 cells was measured at 37 °C using the voltmeter apparatus Millicell (Millipore Co., Billerica, MA, USA), immediately before and at the end of the transport experiments. In addition, at the end of transport experiments, cells were incubated from the AP side with 1 mM phenol-red in PBS containing Ca^++ (0.9 mM) and Mg^++ (0.5 mM) for 1 h at 37 °C, to monitor the paracellular permeability of the cell monolayer. The BL solutions were then collected and NaOH (70 µL, 0.1 N) was added before reading the absorbance at 560 nm by a microplate reader Synergy H1 from Biotek (Winooski, VT, USA). Phenol-red passage was quantified using a standard phenol-red curve. Only filters showing TEER values and phenol red passages similar to untreated control cells were considered for peptide transport analysis.
as §1
The medium collected at the end of transport experiments from AP and BL chambers (500 µL and 700 µL, respectively) were freeze-dried and residues were solubilized in HPLC water (100 µL). Samples were desalted with C18 resin ZipTip by using 80% ACN, 0.1% FA as eluent (Millipore Corporation, Bedford, MA, USA). Each sample was lyophilized under speed-vacuum for 5 h at 30°C and re-dissolved in 50 μL (0.1% formic acid), before MS analysis. Purified BL samples were analyzed on a SL IT mass spectrometer interfaced with a HPLC- Chip Cube source (Agilent Technologies, Palo Alto, CA, USA). […]

**Q.** How did the “Reduction of HMGCoAR enzyme activity” value ([1]; 1.0 µM, positive control) turn out when `CC[C@H](C)C(=O)O[C@H]1C[C@H](O)C=C2C=C[C@H](C)[C@H](CC[C@@H](O)C[C@@H](O)CC(=O)O)[C@H]21` [pravastatin, reference compound] was run?
**A.** Its value is 82.0%.

**Q.** Which “Metabolite of P5 identified in the AP compartment: Mixture” value [2] does the source give for “ILPKHSDAD [Peptide P5-frag, minor metabolite of P5, loss of the N-terminal leucine]” here?
**A.** Its value is “x”.

**Q.** How did the IC50 ([1]; 10-500 µM peptide, 37 °C, NADPH absorbance 340 nm at 0 and 10 min) turn out when LILPKHSDAD [Peptide P5] was run?
**A.** The IC50 was 147 µM.

**Q.** And the “Effect of the transcytosis inhibitor wortmannin on transport across Caco-2 cells” value ([3]; 500 nM wortmannin in AP and BL compartments, 60 min, HPLC-Chip MS of BL compartment)?
**A.** Its value is “significantly impairs the transport”.

**Q.** And the “Amount in BL compartment, mixture versus alone” value ([3]; Caco-2 AP to BL, 2 h, 500 μM)?
**A.** Its value is “about 3.5 fold”.

**Q.** And the “Transport rate across Caco-2 monolayer” value ([3]; in mixture with other lupin peptides (P3, P7), Caco-2 AP to BL, 500 μM)?
**A.** The value was 8.9 ± 0.4 ng/(mL × min).

**Q.** And the “Amount in the BL compartment at the end of incubation (2 h)” value (“Amount in the BL compartment at the end” for short) ([3]; tested alone, 500 μM in AP, Caco-2 AP to BL, 2 h, conversion of the μg value)?
**A.** The value was 0.271 nmol.

**Q.** What about the “Amount in the BL compartment at the end” value ([3]; tested alone, 500 μM in AP, Caco-2 AP to BL, AP pH 6.0 / BL pH 7.4, 37 °C, 2 h, HPLC-Chip MS, mean ± SD) of the same molecule?
**A.** The value was 0.3 ± 0.02 µg.

**Q.** What about the “Amount in the BL compartment after 60 min” value ([3]; tested alone, 500 μM in AP, Caco-2 AP to BL, AP pH 6.0 / BL pH 7.4, 37 °C, HPLC-Chip MS, mean ± SD) of the same molecule?
**A.** The value was 0.20 ± 0.02 µg.

**Q.** What about the “Transport rate across Caco-2 monolayer” value ([3]; tested alone, Caco-2 AP to BL, 500 μM) of the same molecule?
**A.** Its value is 1.8 ± 0.3 ng/(mL × min).

**Q.** And the “Amount in the BL compartment at the end” value ([3]; tested in mixture with P3 and P7, each 500 μM in AP, Caco-2 AP to BL, 2 h, conversion of the μg value)?
**A.** The value was 0.99 nmol.

**Q.** And the “Amount in the BL compartment at the end” value ([3]; tested in mixture with P3 and P7, each 500 μM in AP, Caco-2 AP to BL, AP pH 6.0 / BL pH 7.4, 37 °C, 2 h, HPLC-Chip MS, mean ± SD)?
**A.** The value was 1.1 ± 0.2 µg.
